In brackets after ≈: the same amount, converted by molar mass. Activity calls are given as the source filed them. The calls are words filed in the database; no cut-off is given here.
Key:
[1] = system: Escherichia coli; experiment: Antibacterial activity against Escherichia coli BW25113 assessed as growth inhibition by measuring minimal concentration at OD600 by visual inspection with iron-limited media incubated for 24 hrs; type: functional
[2] = system: Enterococcus faecium; experiment: Antibacterial activity against Enterococcus faecium DSM20477 assessed as growth inhibition by measuring minimal concentration at OD600 by visual inspection with iron-limited media incubated for 24 hrs; type: functional
[3] = system: Staphylococcus aureus; experiment: Antibacterial activity against Staphylococcus aureus DSM11822 assessed as growth inhibition by measuring minimal concentration at OD600 by visual inspection with iron-limited media incubated for 24 hrs; type: functional
[4] = system: Acinetobacter baumannii; experiment: Antibacterial activity against Acinetobacter baumannii DSM30007 assessed as growth inhibition by measuring minimal concentration at OD600 by visual inspection with iron-limited media incubated for 24 hrs; type: functional
[5] = system: Pseudomonas aeruginosa; experiment: Antibacterial activity against Pseudomonas aeruginosa DSM24068 assessed as growth inhibition by measuring minimal concentration at OD600 by visual inspection with iron-limited media incubated for 24 hrs; type: functional, organism-based
[6] = system: Klebsiella pneumoniae; experiment: Antibacterial activity against Klebsiella pneumoniae DSM11678 assessed as growth inhibition by measuring minimal concentration at OD600 by visual inspection with iron-limited media incubated for 24 hrs; type: functional, organism-based
[7] = system: Escherichia coli; experiment: Recovery of growth in Escherichia coli BW25113 delta entA assessed as reversal of growth at 10 uM in presence of 0.1 uM iron(III) chloride hexahydrate by growth recovery assay; type: functional, organism-based
[8] = system: Escherichia coli; experiment: Antibacterial activity against Escherichia coli delta cirA assessed as growth inhibition by measuring minimal concentration at OD600 by visual inspection with iron-limited media incubated for 24 hrs; type: functional
[9] = system: Escherichia coli; experiment: Antibacterial activity against Escherichia coli delta cirA delta fiu assessed as growth inhibition by measuring minimal concentration at OD600 by visual inspection with iron-limited media incubated for 24 hrs; type: functional
[10] = system: Escherichia coli; experiment: Antibacterial activity against Escherichia coli delta fiu assessed as growth inhibition by measuring minimal concentration at OD600 by visual inspection with iron-limited media incubated for 24 hrs; type: functional
[11] = system: Escherichia coli; experiment: Antibacterial activity against Escherichia coli delta […] delta fiu assessed as growth inhibition by measuring minimal concentration at OD600 by visual inspection with iron-limited media incubated for 24 hrs; type: functional
[12] = system: Escherichia coli; experiment: Antibacterial activity against Escherichia coli delta exbB assessed as growth inhibition by measuring minimal concentration at OD600 by visual inspection with iron-limited media incubated for 24 hrs; type: functional
[13] = system: Escherichia coli; experiment: Antibacterial activity against Escherichia coli delta fepA assessed as growth inhibition by measuring minimal concentration at OD600 by visual inspection with iron-limited media incubated for 24 hrs; type: functional
[14] = system: Escherichia coli; experiment: Antibacterial activity against Escherichia coli delta tonB assessed as growth inhibition by measuring minimal concentration at OD600 by visual inspection with iron-limited media incubated for 24 hrs; type: functional
[15] = system: Escherichia coli; experiment: Antibacterial activity against wild type Escherichia coli BW25113 assessed as growth inhibition by measuring minimal concentration at OD600 by visual inspection with iron-limited media incubated for 24 hrs; type: functional
[16] = system: Escherichia coli; experiment: Antibacterial activity against Escherichia coli delta fepA delta cirA assessed as growth inhibition by measuring minimal concentration at OD600 by visual inspection with iron-limited media incubated for 24 hrs; type: functional
[17] = system: Escherichia coli; experiment: Antibacterial activity against Escherichia coli delta fepB assessed as growth inhibition by measuring minimal concentration at OD600 by visual inspection with iron-limited media incubated for 24 hrs; type: functional
[18] = system: Escherichia coli; experiment: Antibacterial activity against Escherichia coli delta fepA delta cirA delta fiu assessed as growth inhibition by measuring minimal concentration at OD600 by visual inspection with iron-limited media incubated for 24 hrs; type: functional
[19] = system: Escherichia coli; experiment: Antibacterial activity against Escherichia coli delta fepD assessed as growth inhibition by measuring minimal concentration at OD600 by visual inspection with iron-limited media incubated for 24 hrs; type: functional

Compound	MIC [1] [µM]	MIC [2] [µM]	MIC [3] [µM]	MIC [4] [µM]	Activity [5]	Activity [6]	also measured
CC1(C)S[C@@H]2[C@H](NC(=O)[C@H](NC(=O)CCn3cc(CCCC(=O)Nc4c(CNC(=O)c5cccc(O)c5O)cc(CNC(=O)c5cccc(O)c5O)cc4CNC(=O)c4cccc(O)c4O)nn3)c3ccc(O)cc3)C(=O)N2[C@H]1C(=O)O	0.87 (≈ 0.996 µg/mL)	> 56	> 56	56 (≈ 64.1 µg/mL)	inactive	inactive	
O=C(NCc1cc(CNC(=O)c2cccc(O)c2O)cc(CNC(=O)c2cccc(O)c2O)c1)c1cccc(O)c1O							Activity [7]: Active
CC(C)(O/N=C(\C(=O)N[C@@H]1C(=O)N2C(C(=O)[O-])=C(C[N+]3(CCNC(=O)c4ccc(O)c(O)c4Cl)CCCC3)CS[C@H]12)c1csc(N)n1)C(=O)O [CEFIDEROCOL]	0.042 (≈ 0.0316 µg/mL)	> 85	> 85	0.053 (≈ 0.0399 µg/mL)			MIC [8]: 0.66 µM (≈ 0.496 µg/mL); MIC [9]: 21 µM (≈ 15.8 µg/mL); MIC [10]: 0.66 µM (≈ 0.496 µg/mL); MIC [11]: 0.66 µM (≈ 0.496 µg/mL); MIC [12]: 5.3 µM (≈ 3.99 µg/mL); MIC [13]: 0.17 µM (≈ 0.128 µg/mL); MIC [14]: > 21 µM; MIC [15]: 33 µM (≈ 24.8 µg/mL); MIC [16]: 0.17 µM (≈ 0.128 µg/mL); MIC [17]: 0.083 µM (≈ 0.0624 µg/mL); MIC [18]: > 21 µM; MIC [19]: 0.083 µM (≈ 0.0624 µg/mL)
CC(=O)Oc1cccc(C(=O)NCCc2cc(CCNC(=O)c3cccc(OC(C)=O)c3OC(C)=O)c([N+](=O)[O-])c(CCNC(=O)c3cccc(OC(C)=O)c3OC(C)=O)c2)c1OC(C)=O							Activity [7]: Active
CC1(C)S[C@@H]2[C@H](NC(=O)[C@H](NC(=O)CCn3cc(CCCC(=O)Nc4c(CNC(=O)c5cccc(O)c5O)cc(CNC(=O)c5cccc(O)c5O)cc4CNC(=O)c4cccc(O)c4O)nn3)c3ccccc3)C(=O)N2[C@H]1C(=O)O	0.89 (≈ 1 µg/mL)	> 57	5.3 (≈ 5.98 µg/mL)	> 57	inactive	inactive	
CC(=O)Oc1cccc(C(=O)NCc2cc(CNC(=O)c3cccc(OC(C)=O)c3OC(C)=O)c(NC(=O)CCOCCOCCOCCOCc3cn(CCC(=O)N[C@@H](C(=O)N[C@@H]4C(=O)N5[C@@H]4SC(C)(C)[C@@H]5C(=O)O)c4ccccc4)nn3)c(CNC(=O)c3cccc(OC(C)=O)c3OC(C)=O)c2)c1OC(C)=O	0.81 (≈ 1.24 µg/mL)	> 64	> 64	64 (≈ 97.9 µg/mL)	inactive	inactive	
CCCCCCCCCC(=O)N[C@@H](Cc1c[nH]c2ccccc12)C(=O)N[C@H](CC(N)=O)C(=O)N[C@@H](CC(=O)O)C(=O)N[C@@H]1C(=O)NCC(=O)N[C@@H](CCCNC(=O)CCCCCn2cc(CCCC(=O)Nc3c(CNC(=O)c4cccc(O)c4O)cc(CNC(=O)c4cccc(O)c4O)cc3CNC(=O)c3cccc(O)c3O)nn2)C(=O)N[C@@H](CC(=O)O)C(=O)N[C@H](C)C(=O)N[C@@H](CC(=O)O)C(=O)NCC(=O)N[C@H](CO)C(=O)N[C@@H]([C@@H](C)CC(=O)O)C(=O)N[C@@H](CC(=O)c2ccccc2N)C(=O)O[C@@H]1C	> 64	13 (≈ 31.8 µg/mL)	8.7 (≈ 21.3 µg/mL)	4.4 (≈ 10.7 µg/mL)	inactive	inactive	
CCCCCCCCCC(=O)N[C@@H](Cc1c[nH]c2ccccc12)C(=O)N[C@H](CC(N)=O)C(=O)N[C@@H](CC(=O)O)C(=O)N[C@@H]1C(=O)NCC(=O)N[C@@H](CCCN)C(=O)N[C@@H](CC(=O)O)C(=O)N[C@H](C)C(=O)N[C@@H](CC(=O)O)C(=O)NCC(=O)N[C@H](CO)C(=O)N[C@@H]([C@H](C)CC(=O)O)C(=O)N[C@@H](CC(=O)c2ccccc2N)C(=O)O[C@@H]1C	> 64	0.62 (≈ 1 µg/mL)	0.36 (≈ 0.583 µg/mL)	> 39			

Source: ChEMBL document CHEMBL4831541, “Antibiotic Conjugates with an Artificial MECAM-Based Siderophore Are Potent Agents against Gram-Positive and Gram-Negative Bacterial Pathogens” (2021)
